The test addresses FP receptor (Homo sapiens (Human), UniProt P43088). The test is described as follows: In vitro test of inhibition of human FP receptor activity (PGF2α-induced calcium flux in FP-expressing CHEM1 cells). It is filed as cell-based. The settings on record: PGF2α-induced (2 nM) calcium flux in FP-expressing CHEM1 cells; some as mean values from multiple determinations. The source says:
Table 1 below lists the IC50 values from this assay for individual working examples of the invention (some as mean values from multiple independent individual determinations): […]
In general terms: Calcium flux is commonly read through the fluorescence of an indicator in the cells.
Chain of FP receptor (P43088 whole entry): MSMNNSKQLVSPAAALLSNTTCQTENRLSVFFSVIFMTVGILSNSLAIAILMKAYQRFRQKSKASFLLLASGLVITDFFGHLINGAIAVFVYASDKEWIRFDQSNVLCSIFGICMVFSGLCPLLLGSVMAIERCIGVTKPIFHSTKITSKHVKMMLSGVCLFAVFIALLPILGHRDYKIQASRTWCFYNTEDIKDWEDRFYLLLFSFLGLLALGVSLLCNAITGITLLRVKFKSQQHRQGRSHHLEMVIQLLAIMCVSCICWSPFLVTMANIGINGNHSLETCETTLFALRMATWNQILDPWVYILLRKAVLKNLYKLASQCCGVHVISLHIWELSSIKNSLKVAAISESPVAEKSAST
In general, IC50 refers to the concentration at which inhibition is half-maximal. Turning to `Cc1c(-c2ccccc2)nc2ccc(Br)cc2c1C(=O)NCC(OCC(=O)O)c1ccccc1Cl` (single isomer, unassigned; (+)) [Example 192, (+)-[2-{[(6-Bromo-3-methyl-2-phenylquinolin-4-yl)carbonyl]amino}-1-(2-chlorophenyl)ethoxy]acetic Acid], the IC50 came out at 0.042 µM.
Turning to `Cc1c(-c2ccccc2)nc2ccc(Br)cc2c1C(=O)NCC(SCC(=O)O)c1ccccc1Cl` (single isomer, unassigned; (+)) [Example 195, (+)-{[2-{[(6-Bromo-3-methyl-2-phenylquinolin-4-yl)carbonyl]amino}-1-(2-chlorophenyl)ethyl]sulfanyl}acetic Acid], the IC50 amounted to 0.008 µM.
The result for `Cc1c(-c2ccccc2)nc2ccc(Br)cc2c1C(=O)NCC(CCC(=O)O)c1c(Cl)ccc(F)c1F` (single isomer, unassigned; (+)) [Example 202, (+)-5-{[(6-Bromo-3-methyl-2-phenylquinolin-4-yl)carbonyl]amino}-4-(6-chloro-2,3-difluorophenyl)pentanoic Acid] reads 0.0062 µM; that for `Cc1c(-c2ccccc2)nc2ccc(Br)cc2c1C(=O)NCC(CCC(=O)O)c1ccccc1C(F)(F)F` (single isomer, unassigned; (+)) [Example 205, (+)-5-{[(6-Bromo-3-methyl-2-phenylquinolin-4-yl)carbonyl]amino}-4-[2-(trifluoromethyl)phenyl]pentanoic Acid], 0.022 µM.
The result for `Cc1ccc(F)cc1C(CCC(=O)O)CNC(=O)c1c(C)c(-c2ccccc2)nc2ccc(Br)cc12` (single isomer, unassigned; (+)) [Example 208, (+)-5-{[(6-Bromo-3-methyl-2-phenylquinolin-4-yl)carbonyl]amino}-4-(5-fluoro-2-methylphenyl)pentanoic Acid] reads 0.011 µM; that for `Cc1c(-c2ccccc2)nc2ccc(Br)cc2c1C(=O)NCC(CCC(=O)O)c1ccccc1OC(F)(F)F` (single isomer, unassigned; (+)) [Example 210, (+)-5-{[(6-Bromo-3-methyl-2-phenylquinolin-4-yl)carbonyl]amino}-4-[2-(trifluoromethoxy)phenyl]pentanoic Acid], 0.0061 µM; that for `O=C(O)CCC(CNC(=O)c1c(Cl)c(-c2ccccc2)nc2ccc(Br)cc12)c1ccccc1Cl` (single isomer, unassigned; (+)) [Example 214, (+)-5-{[(6-Bromo-3-chloro-2-phenylquinolin-4-yl)carbonyl]amino}-4-(2-chlorophenyl)pentanoic Acid], 0.0044 µM.
Regarding `O=C(O)CCC(CNC(=O)c1c(Cl)c(-c2ccccc2)nc2ccc(Br)cc12)c1ccccc1C(F)(F)F` (single isomer, unassigned; (+)) [Example 217, (+)-5-{[(6-Bromo-3-chloro-2-phenylquinolin-4-yl)carbonyl]amino}-4-[2-(trifluoromethyl)phenyl]pentanoic Acid], the IC50 worked out at 0.019 µM.
With `C#Cc1ccc2nc(-c3ccccc3)c(C)c(C(=O)NCC(CCC(=O)O)c3ccccc3Cl)c2c1` (single isomer, unassigned; (+)) [Example 220, (+)-4-(2-Chlorophenyl)-5-{[(6-ethynyl-3-methyl-2-phenylquinolin-4-yl)carbonyl]amino}pentanoic Acid], the IC50 came out at 0.008 µM.
In the case of `O=C(O)CCC(CNC(=O)c1c(Cl)c(-c2ccccc2)nc2ccc(Br)cc12)c1c(F)ccc(F)c1Cl` (single isomer, unassigned; (+)) [Example 223, (+)-5-{[(6-Bromo-3-chloro-2-phenylquinolin-4-yl)carbonyl]amino}-4-(2-chloro-3,6-difluorophenyl)pentanoic Acid], the IC50 stood at 0.012 µM.
In the case of `Cc1c(-c2ccccc2)nc2ccc(Br)cc2c1C(=O)NCC(CCC(=O)O)c1c(F)cccc1C(F)(F)F` (single isomer, unassigned; (+)) [Example 226, (+)-5-{[(6-Bromo-3-methyl-2-phenylquinolin-4-yl)carbonyl]amino}-4-[2-fluoro-6-(trifluoromethyl)phenyl]pentanoic Acid] it was 0.1 µM; in that of `Cc1c(-c2ccccc2)nc2ccc(Br)cc2c1C(=O)NCC(CCC(=O)O)c1c(F)c(F)cc(F)c1F` (single isomer, unassigned; (+)) [Example 230, (+)-5-{[(6-Bromo-3-methyl-2-phenylquinolin-4-yl)carbonyl]amino}-4-(2,3,5,6-tetrafluorophenyl)pentanoic Acid], 0.049 µM; in that of `Cc1c(-c2ccccc2)nc2ccc(Br)cc2c1C(=O)NCC(CCC(=O)O)c1c(Cl)ccc(Cl)c1Cl` (single isomer, unassigned; (+)) [Example 235, (+)-5-{[(6-Bromo-3-methyl-2-phenylquinolin-4-yl)carbonyl]amino}-4-(2,3,6-trichlorophenyl)pentanoic Acid], 0.032 µM.
Take `Cc1c(-c2ccccc2)nc2ccc(Br)cc2c1C(=O)NCC(C)(CCCC(=O)O)c1ccccc1Cl` (single isomer, unassigned; (+)) [Example 242, (+)-6-{[(6-Bromo-3-methyl-2-phenylquinolin-4-yl)carbonyl]amino}-5-(2-chlorophenyl)-5-methylhexanoic Acid]: the IC50 worked out at 0.016 µM.
On to `Cc1c(-c2ccccc2)nc2ccc(Br)cc2c1C(=O)NCC(C)(CCCC(=O)O)c1ccccc1` (single isomer, unassigned; (+)) [Example 245, (+)-6-{[(6-Bromo-3-methyl-2-phenylquinolin-4-yl)carbonyl]amino}-5-methyl-5-phenylhexanoic Acid], for which the IC50 was 0.063 µM.
The result for `Cc1c(-c2ccccc2)nc2ccc(Br)cc2c1C(=O)NCC(C(=O)O)c1ccccc1` (single isomer, unassigned; (-)) [Example 2, (−)-3-{[(6-Bromo-3-methyl-2-phenylquinolin-4-yl)carbonyl]amino}-2-phenylpropanoic Acid] reads 0.16 µM.
The result for `COc1ccccc1C(CNC(=O)c1c(C)c(-c2ccccc2)nc2ccc(Br)cc12)C(=O)O` (single isomer, unassigned; (-)) [Example 8, (−)-3-{[(6-Bromo-3-methyl-2-phenylquinolin-4-yl)carbonyl]amino}-2-(2-methoxyphenyl)propanoic Acid] reads 0.13 µM; that for `Cc1c(-c2ccccc2)nc2ccc(Br)cc2c1C(=O)NCC(C)(C(=O)O)c1ccccc1` (single isomer, unassigned; (-)) [Example 14, (−)-3-{[(6-Bromo-3-methyl-2-phenylquinolin-4-yl)carbonyl]amino}-2-methyl-2-phenylpropanoic Acid], 0.053 µM.
Take `CCC(CNC(=O)c1c(C)c(-c2ccccc2)nc2ccc(Br)cc12)(C(=O)O)c1ccccc1` (single isomer, unassigned; (-)) [Example 17, (−)-2-({[(6-Bromo-3-methyl-2-phenylquinolin-4-yl)carbonyl]amino}methyl)-2-phenylbutanoic Acid]: the IC50 stood at 0.26 µM.
The result for `Cc1c(-c2ccccc2)nc2ccc(Br)cc2c1C(=O)NCC(O)(C(=O)O)c1ccccc1` (single isomer, unassigned; (-)) [Example 21, (−)-3-{[(6-Bromo-3-methyl-2-phenylquinolin-4-yl)carbonyl]amino}-2-hydroxy-2-phenylpropanoic Acid] reads 0.17 µM.
